Laboratory results as given in patent publication US9018206B2, “Carboxamide compounds and their use as calpain inhibitors” (AbbVie Deutschland GmbH & Co. KG, priority 2009, dated 2015).

Experiments:
[1] = Assay for determining cytosolic clearance, human liver cytosol; format: in vitro ADME; conditions: 0.5 μM compound, 1 mg/ml human liver cytosol, 37° C., pH 7.5
Method: (§1) For comparison purposes data measured with human liver cytosol were contrasted with those obtained with cynomolgus monkey liver cytosol.
(§2) 0.5 μM of a compound to be tested was incubated with 1 mg/ml of human liver cytosol as well as monkey liver cytosol at 37° C. in 0.5 M of phosphate buffer at pH 7.5 while shaking (commercial sources: female cynomolgus liver cytosol from Tebu bio, human liver cytosol from BDgentest).
(§3) In each case aliquots of 65 μl were taken after 0, 5, 10 and 15 min and transferred into wells of a wellplate which were immediately filled with 130 μl of ethanol to stop the reaction. The samples were kept frozen until analysis on a LC/MS/MS system (Applied Biosystems SCIEX 4000).
(§4) Read out parameters were the loss of parent compounds, from which the half life periods (T1/2) were calculated from.
(§5) To assess the stability of the compounds tested the clearance ranges were adjusted to the hepatic plasma flow of the different species according to the following scheme:
(§6) stable=from 0 to about ⅓ of the hepatic plasma flow;
(§7) moderately stable=from about ⅓ to about ⅔ of the hepatic plasma flow;
(§8) instable=more than ⅔ of the hepatic plasma flow.
(§9) Based on this adjustment the following qualifiers were assigned to evaluate the cytosolic stabilities of the compounds tested: […]

[2] = target: T1, cathepsin L isolated from human liver (Homo sapiens, UniProt P07711); test: Cathepsin L enzyme inhibition in vitro (kinetic fluorescence assay); format: biochemical; conditions: Ki(cathepsin L)/Ki(calpain) ratio
T1 construct: cathepsin L—isolated from human liver; purchased Calbiochem 219402; host or cells: human liver (tissue-derived)
Outline: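 Inhibition of cathepsin L isolated from human liver was measured by kinetic fluorescence (excitation 390 nm, emission 460 nm) using 1 nM enzyme and 2 μM Z-Phe-Arg-AMC substrate (Km 2 μM) in 50 mM MES, 2 mM EDTA, 0.05% Brij 35, 2.5 mM L-cysteine, pH 6.0, at room temperature. Apparent Ki values came from IC50 values via the Cheng-Prussoff relation, averaged over 2 to 4 dose-effect plots.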

[3] = Assay for determining cytosolic clearance, cynomolgus monkey liver cytosol; format: in vitro ADME; conditions: 0.5 μM compound, 1 mg/ml cynomolgus monkey liver cytosol, 37° C., pH 7.5
Method: as §1, §2, §3, §4, §5, §6, §7, §8, §9

[4] = target: T2, recombinant human cathepsin S (Homo sapiens, UniProt P25774); test: Cathepsin S enzyme inhibition in vitro (kinetic fluorescence assay); format: biochemical; conditions: Ki(cathepsin S)/Ki(calpain) ratio
T2 construct: purchased Calbiochem 219343; host or cells: E. coli
Outline: (§10)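 Kinetic AMC fluorescence (ex 390/em 460 nm), room temperature. Calpain-I 20 nM, 100 μM Suc-Leu-Tyr-AMC, imidazole/CaCl2 pH 7.3; cathepsins B 0.25 nM/100 μM Z-Phe-Arg-AMC, K 3 nM/10 μM Z-Gly-Pro-Arg-AMC, S 0.5 nM/20 μM Z-Val-Val-Arg-AMC, each MES/EDTA/cysteine pH 6.0. Ki from IC50 via Cheng-Prusoff, averaging 2–4 curves.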

[5] = target: T3, cathepsin K activated from recombinant human procathepsin K (Homo sapiens, UniProt P43235); test: Cathepsin K enzyme inhibition in vitro (kinetic fluorescence assay); format: biochemical; conditions: Ki(cathepsin K)/Ki(calpain) ratio
T3 construct: purchased Calbiochem 342001; host or cells: E. coli
T3 sequence (P43235 115-329): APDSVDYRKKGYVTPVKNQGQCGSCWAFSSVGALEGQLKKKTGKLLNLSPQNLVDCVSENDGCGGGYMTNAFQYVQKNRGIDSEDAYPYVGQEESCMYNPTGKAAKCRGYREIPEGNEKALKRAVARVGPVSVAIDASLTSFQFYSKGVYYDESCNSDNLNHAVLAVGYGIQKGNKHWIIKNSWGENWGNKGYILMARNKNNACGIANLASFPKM
Outline: as §10

[6] = target: T4, cathepsin B isolated from human liver (Homo sapiens, UniProt P07858); test: Cathepsin B enzyme inhibition in vitro (kinetic fluorescence assay); format: biochemical; conditions: Ki(cathepsin B)/Ki(calpain) ratio
T4 construct: cathepsin B—isolated from human liver; purchased Calbiochem 219362; host or cells: human liver (tissue-derived)
Outline: as §10

[7] = target: T5, calpain-I isolated from human erythrocytes (Homo sapiens, UniProt P07384); test: Calpain I enzyme inhibition in vitro (kinetic fluorescence assay); format: biochemical; conditions: apparent Ki from IC50 (Cheng-Prussoff); 20 nM calpain-I, 100 μM Suc-Leu-Tyr-AMC, pH 7.3, room temperature
T5 construct: calpain-I—isolated from human erythrocytes; purchased Calbiochem 208713; host or cells: human erythrocytes (tissue-derived)
T5 sequence (P07384 1-714): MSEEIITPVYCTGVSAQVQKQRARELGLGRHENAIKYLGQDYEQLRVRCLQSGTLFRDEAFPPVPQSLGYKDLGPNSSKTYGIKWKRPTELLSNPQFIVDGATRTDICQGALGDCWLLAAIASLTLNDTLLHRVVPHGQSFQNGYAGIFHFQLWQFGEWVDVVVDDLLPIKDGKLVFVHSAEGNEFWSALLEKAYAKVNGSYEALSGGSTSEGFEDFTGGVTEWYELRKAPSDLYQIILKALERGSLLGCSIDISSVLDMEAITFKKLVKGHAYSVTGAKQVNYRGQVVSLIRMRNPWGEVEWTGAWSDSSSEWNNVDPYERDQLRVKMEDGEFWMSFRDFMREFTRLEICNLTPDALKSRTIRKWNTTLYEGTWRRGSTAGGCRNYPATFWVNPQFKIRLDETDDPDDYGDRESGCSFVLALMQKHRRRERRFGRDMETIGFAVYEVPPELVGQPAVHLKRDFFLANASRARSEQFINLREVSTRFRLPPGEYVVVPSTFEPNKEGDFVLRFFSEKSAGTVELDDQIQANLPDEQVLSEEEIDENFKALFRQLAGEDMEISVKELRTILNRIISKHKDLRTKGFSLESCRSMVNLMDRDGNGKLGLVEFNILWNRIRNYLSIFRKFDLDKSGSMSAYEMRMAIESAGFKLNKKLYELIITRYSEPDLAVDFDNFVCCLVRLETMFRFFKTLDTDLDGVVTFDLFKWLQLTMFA
T5 sequence (P04632 1-268 partner): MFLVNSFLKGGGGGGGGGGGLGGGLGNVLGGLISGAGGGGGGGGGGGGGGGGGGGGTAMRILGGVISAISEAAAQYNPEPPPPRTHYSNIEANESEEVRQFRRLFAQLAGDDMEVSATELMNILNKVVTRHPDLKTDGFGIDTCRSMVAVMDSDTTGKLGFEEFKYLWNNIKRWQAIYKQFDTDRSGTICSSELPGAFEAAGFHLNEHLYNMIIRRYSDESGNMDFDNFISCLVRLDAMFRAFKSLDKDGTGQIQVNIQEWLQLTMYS
Outline: as §10

T1 sequence (P07711 114-333): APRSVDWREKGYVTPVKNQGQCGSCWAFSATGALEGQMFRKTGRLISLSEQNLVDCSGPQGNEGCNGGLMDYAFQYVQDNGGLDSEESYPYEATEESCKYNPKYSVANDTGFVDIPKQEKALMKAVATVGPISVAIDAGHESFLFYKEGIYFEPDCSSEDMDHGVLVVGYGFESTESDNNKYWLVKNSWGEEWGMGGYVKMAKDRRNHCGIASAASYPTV
T2 sequence (P25774 115-331): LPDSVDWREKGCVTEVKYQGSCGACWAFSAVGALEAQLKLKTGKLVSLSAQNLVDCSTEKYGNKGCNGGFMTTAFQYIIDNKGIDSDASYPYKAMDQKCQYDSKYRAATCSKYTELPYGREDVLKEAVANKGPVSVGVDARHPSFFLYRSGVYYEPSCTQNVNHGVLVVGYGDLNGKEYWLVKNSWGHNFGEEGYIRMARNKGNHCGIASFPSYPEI

| SMILES | human cytCL [1] | Sel cat. L [2] | cyno cytCL [3] | Sel cat. S [4] | Sel cat. K [5] | Sel cat. B [6] | Ki [7] |
| --- | --- | --- | --- | --- | --- | --- | --- |
| CNC(=O)C(=O)C(Cc1ccccc1)NC(=O)[C@H]1CCC(=O)N1Cc1ccccc1 (mixture of isomers) [Example 25, (2R)-1-Benzyl-N-(4-(methylamino)-3,4-dioxo-1-phenylbutan-2-yl)-5-oxopyrrolidine-2-carboxamide] | ++ (0-14 μl/min/mg) | +++ (Ki(cathepsin L)/Ki(calpain) ratio of >30) | ++ (0-18 μl/min/mg) | ++ (30<Ki(cathepsin B)/Ki(calpain)≦100) | +++ (Ki(cathepsin K)/Ki(calpain) ratio of >30) | +++ (Ki(cathepsin B)/Ki(calpain) ratio of >30) | 100 to 600 nM |
| O=C(NC1CC1)C(=O)C(Cc1ccccc1)NC(=O)[C@H]1CCC(=O)N1Cc1ccccc1 (mixture of isomers) [Example 27, (2R)-1-Benzyl-N-(4-(cyclopropylamino)-3,4-dioxo-1-phenylbutan-2-yl)-5-oxopyrrolidine-2-carboxamide] | ++ (0-14 μl/min/mg) | +++ (Ki(cathepsin L)/Ki(calpain) ratio of >30) | ++ (0-18 μl/min/mg) | ++ (30<Ki(cathepsin B)/Ki(calpain)≦100) | +++ (Ki(cathepsin K)/Ki(calpain) ratio of >30) | +++ (Ki(cathepsin B)/Ki(calpain) ratio of >30) | 100 to 600 nM |
| CC(C)CNC(=O)C(=O)C(Cc1ccccc1)NC(=O)[C@H]1CCC(=O)N1Cc1ccccc1 (mixture of isomers) [Example 28, (2R)-1-Benzyl-N-(4-(isobutylamino)-3,4-dioxo-1-phenylbutan-2-yl)-5-oxopyrrolidine-2-carboxamide] | ++ (0-14 μl/min/mg) | +++ (Ki(cathepsin L)/Ki(calpain) ratio of >30) | ++ (0-18 μl/min/mg) | ++ (30<Ki(cathepsin B)/Ki(calpain)≦100) | +++ (Ki(cathepsin K)/Ki(calpain) ratio of >30) | +++ (Ki(cathepsin B)/Ki(calpain) ratio of >30) | 100 to 600 nM |
| O=C(NC1CC1)C(=O)C(Cc1ccccc1)NC(=O)[C@H]1CCC(=O)N1Cc1ccccc1C(F)(F)F (mixture of isomers) [Example 36, (2R)—N-(4-(Cyclopropylamino)-3,4-dioxo-1-phenylbutan-2-yl)-5-oxo-1-(2-(trifluoromethyl)benzyl)pyrrolidine-2-carboxamide] | ++ (0-14 μl/min/mg) | +++ (Ki(cathepsin L)/Ki(calpain) ratio of >30) | ++ (0-18 μl/min/mg) | +++ (Ki(cathepsin S)/Ki(calpain) ratio of >100) | +++ (Ki(cathepsin K)/Ki(calpain) ratio of >30) | ++ (10<Ki(cathepsin B)/Ki(calpain)≦30) | 50 to 100 nM |
| CCNC(=O)C(=O)C(Cc1ccccc1)NC(=O)[C@H]1CCC(=O)N1Cc1ccccc1C(F)(F)F (mixture of isomers) [Example 37, (2R)—N-(4-(Ethylamino)-3,4-dioxo-1-phenylbutan-2-yl)-5-oxo-1-(2-(trifluoromethyl)-benzyl)pyrrolidine-2-carboxamide] | ++ (0-14 μl/min/mg) | +++ (Ki(cathepsin L)/Ki(calpain) ratio of >30) | ++ (0-18 μl/min/mg) | + (10<Ki(cathepsin S)/Ki(calpain)≦30) | ++ (10<Ki(cathepsin B)/Ki(calpain)≦30) | ++ (10<Ki(cathepsin B)/Ki(calpain)≦30) | 100 to 600 nM |
| CCNC(=O)C(=O)C(Cc1ccccc1)NC(=O)[C@H]1CCC(=O)N1Cc1c(OC)cccc1C(F)(F)F (mixture of isomers) [Example 42, (2R)—N-(4-(Ethylamino)-3,4-dioxo-1-phenylbutan-2-yl)-1-(2-methoxy-6-(trifluoromethyl)benzyl)-5-oxopyrrolidine-2-carboxamide] | ++ (0-14 μl/min/mg) | ++ (10<Ki(cathepsin B)/Ki(calpain)≦30) | ++ (0-18 μl/min/mg) | – | ++ (10<Ki(cathepsin B)/Ki(calpain)≦30) | ++ (10<Ki(cathepsin B)/Ki(calpain)≦30) | – |
| COc1cccc(C(F)(F)F)c1CN1C(=O)CC[C@@H]1C(=O)NC(Cc1ccccc1)C(=O)C(=O)NCc1ccccn1 (mixture of isomers) [Example 43, (2R)—N-(3,4-Dioxo-1-phenyl-4-(pyridin-2-ylmethylamino)butan-2-yl)-1-(2-methoxy-6-(trifluoromethyl)benzyl)-5-oxopyrrolidine-2-carboxamide] | ++ (0-14 μl/min/mg) | +++ (Ki(cathepsin L)/Ki(calpain) ratio of >30) | ++ (0-18 μl/min/mg) | ++ (30<Ki(cathepsin B)/Ki(calpain)≦100) | +++ (Ki(cathepsin K)/Ki(calpain) ratio of >30) | +++ (Ki(cathepsin B)/Ki(calpain) ratio of >30) | 100 to 600 nM |
| O=C(NCc1ccc(C(F)(F)F)cc1)C(=O)C(Cc1ccccc1)NC(=O)[C@H]1CCC(=O)N1Cc1ccccc1 (mixture of isomers) [Example 68, (2R)-1-Benzyl-N-(3,4-dioxo-1-phenyl-4-(4-(trifluoromethyl)benzylamino)butan-2-yl)-5-oxopyrrolidine-2-carboxamide] | – | ++ (10<Ki(cathepsin B)/Ki(calpain)≦30) | ++ (0-18 μl/min/mg) | +++ (Ki(cathepsin S)/Ki(calpain) ratio of >100) | +++ (Ki(cathepsin K)/Ki(calpain) ratio of >30) | +++ (Ki(cathepsin B)/Ki(calpain) ratio of >30) | 100 to 600 nM |
